Assay results as given in ChEMBL document CHEMBL1147767, “Synthesis and biological evaluation of biphenylsulfonamide carboxylate aggrecanase-1 inhibitors” (Bioorg Med Chem Lett, 2006).
Active and inactive are the calls of the source. No cut-off for these calls is given here.

How the values were obtained:
[1] = biological target: T1, A disintegrin and metalloproteinase with thrombospondin motifs 4 (Homo sapiens, UniProt O75173)
T1 sequence (O75173 whole entry): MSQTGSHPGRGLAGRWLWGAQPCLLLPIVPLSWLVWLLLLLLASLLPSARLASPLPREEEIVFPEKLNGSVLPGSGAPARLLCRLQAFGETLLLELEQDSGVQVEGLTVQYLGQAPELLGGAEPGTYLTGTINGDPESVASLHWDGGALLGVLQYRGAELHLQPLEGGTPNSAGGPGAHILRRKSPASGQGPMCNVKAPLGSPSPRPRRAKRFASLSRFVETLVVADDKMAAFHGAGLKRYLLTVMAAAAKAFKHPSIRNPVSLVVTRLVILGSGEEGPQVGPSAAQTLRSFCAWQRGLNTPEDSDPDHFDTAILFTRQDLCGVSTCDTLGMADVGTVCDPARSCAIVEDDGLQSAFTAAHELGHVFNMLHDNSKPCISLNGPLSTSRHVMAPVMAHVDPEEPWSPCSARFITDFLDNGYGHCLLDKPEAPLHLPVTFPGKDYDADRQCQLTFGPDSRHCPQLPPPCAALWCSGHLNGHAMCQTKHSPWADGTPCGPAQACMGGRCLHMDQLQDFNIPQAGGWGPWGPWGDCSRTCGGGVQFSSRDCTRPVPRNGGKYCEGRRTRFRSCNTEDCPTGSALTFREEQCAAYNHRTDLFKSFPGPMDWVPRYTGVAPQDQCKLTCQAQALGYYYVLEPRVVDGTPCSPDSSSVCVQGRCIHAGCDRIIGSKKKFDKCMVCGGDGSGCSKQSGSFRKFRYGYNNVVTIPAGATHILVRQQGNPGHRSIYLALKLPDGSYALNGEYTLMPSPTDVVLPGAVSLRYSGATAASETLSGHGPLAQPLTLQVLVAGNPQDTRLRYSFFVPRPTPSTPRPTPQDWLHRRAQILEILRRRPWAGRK

[2] = biological target: T2, A disintegrin and metalloproteinase with thrombospondin motifs 4 (Homo sapiens) (UniProt O75173); experiment: Inhibitory activity against human Aggrecanase 1
T2 sequence (whole entry): T1 sequence (O75173 whole entry)

[3] = Cmax in male Sprague-Dawley rats; assay type: ADME, organism-based; conditions: rat, in vivo
[4] = biological target: 72 kDa type IV collagenase (Homo sapiens, UniProt P08253); experiment: Inhibitory activity against MMP2
Chain of 72 kDa type IV collagenase (P08253 whole entry): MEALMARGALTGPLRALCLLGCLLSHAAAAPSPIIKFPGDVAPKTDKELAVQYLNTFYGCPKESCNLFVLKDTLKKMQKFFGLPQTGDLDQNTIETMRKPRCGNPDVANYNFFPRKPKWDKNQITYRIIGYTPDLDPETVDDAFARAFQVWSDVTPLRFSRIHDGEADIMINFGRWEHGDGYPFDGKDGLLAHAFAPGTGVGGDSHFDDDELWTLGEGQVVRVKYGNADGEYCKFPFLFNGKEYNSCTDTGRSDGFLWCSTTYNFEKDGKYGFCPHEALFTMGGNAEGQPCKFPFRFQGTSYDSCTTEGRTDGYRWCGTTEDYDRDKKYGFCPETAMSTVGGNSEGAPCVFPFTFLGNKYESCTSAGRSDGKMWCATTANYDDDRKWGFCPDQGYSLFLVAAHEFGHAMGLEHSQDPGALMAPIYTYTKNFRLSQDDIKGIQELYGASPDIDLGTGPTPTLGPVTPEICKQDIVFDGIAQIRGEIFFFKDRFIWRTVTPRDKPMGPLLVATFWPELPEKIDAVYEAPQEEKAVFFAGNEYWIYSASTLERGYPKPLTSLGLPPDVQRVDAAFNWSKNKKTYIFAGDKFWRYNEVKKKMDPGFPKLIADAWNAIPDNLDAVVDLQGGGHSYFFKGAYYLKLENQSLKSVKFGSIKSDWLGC

Collagenase 3 = Collagenase 3 (Homo sapiens, UniProt P45452)
[5] = Half life in male Sprague-Dawley rats; assay type: ADME, organism-based; conditions: rat, in vivo
Interstitial collagenase = biological target: T3, Interstitial collagenase (Homo sapiens, UniProt P03956); experiment: Inhibitory activity against MMP1
T3 sequence (P03956 whole entry): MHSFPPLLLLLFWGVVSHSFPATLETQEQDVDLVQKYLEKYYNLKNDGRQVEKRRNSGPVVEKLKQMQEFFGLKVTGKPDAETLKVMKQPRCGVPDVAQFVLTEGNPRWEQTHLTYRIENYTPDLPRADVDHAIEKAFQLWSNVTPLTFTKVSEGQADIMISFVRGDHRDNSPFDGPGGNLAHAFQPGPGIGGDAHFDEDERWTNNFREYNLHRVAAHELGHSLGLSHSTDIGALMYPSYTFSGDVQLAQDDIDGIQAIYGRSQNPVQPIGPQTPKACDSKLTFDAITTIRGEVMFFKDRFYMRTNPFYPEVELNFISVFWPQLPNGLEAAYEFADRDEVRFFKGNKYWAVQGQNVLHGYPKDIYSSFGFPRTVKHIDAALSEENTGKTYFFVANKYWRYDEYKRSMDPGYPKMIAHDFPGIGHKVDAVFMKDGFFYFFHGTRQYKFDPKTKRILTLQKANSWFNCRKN

[6] = biological target: Matrix metalloproteinase-14 (Homo sapiens, UniProt P50281); experiment: Inhibitory activity against MMP14
[7] = Clearance in male Sprague-Dawley rats; assay type: ADME, organism-based; conditions: rat, in vivo
[8] = biological target: T4, A disintegrin and metalloproteinase with thrombospondin motifs 4 (Bos taurus) (UniProt Q9TT93); experiment: Inhibition of IL1induced proteoglycan degradation in bovine cartilage, 3 day incubation at 10 ug/mL; assay type: functional
T4 sequence (whole entry): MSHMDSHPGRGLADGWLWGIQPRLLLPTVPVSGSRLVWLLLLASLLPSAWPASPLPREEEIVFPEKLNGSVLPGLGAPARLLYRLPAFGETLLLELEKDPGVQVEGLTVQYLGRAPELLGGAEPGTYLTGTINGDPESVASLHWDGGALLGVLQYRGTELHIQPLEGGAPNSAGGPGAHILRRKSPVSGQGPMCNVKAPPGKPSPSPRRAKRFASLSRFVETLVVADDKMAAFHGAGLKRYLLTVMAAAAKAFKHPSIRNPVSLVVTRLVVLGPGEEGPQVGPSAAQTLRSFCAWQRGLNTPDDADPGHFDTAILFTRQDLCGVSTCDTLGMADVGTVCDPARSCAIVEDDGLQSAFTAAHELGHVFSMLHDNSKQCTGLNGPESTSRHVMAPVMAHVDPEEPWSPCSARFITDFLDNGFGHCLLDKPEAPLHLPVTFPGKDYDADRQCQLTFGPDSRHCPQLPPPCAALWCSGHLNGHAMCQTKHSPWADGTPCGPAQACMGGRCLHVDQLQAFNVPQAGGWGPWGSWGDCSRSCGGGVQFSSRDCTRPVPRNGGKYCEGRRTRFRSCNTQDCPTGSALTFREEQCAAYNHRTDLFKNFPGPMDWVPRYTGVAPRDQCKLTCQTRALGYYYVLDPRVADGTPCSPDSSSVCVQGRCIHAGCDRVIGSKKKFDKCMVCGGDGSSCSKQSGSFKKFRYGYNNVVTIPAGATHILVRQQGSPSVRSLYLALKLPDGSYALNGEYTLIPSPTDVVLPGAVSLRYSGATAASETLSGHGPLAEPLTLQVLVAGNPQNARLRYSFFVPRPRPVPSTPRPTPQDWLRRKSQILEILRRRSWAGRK

[9] = Oral bioavailability in male Sprague-Dawley rats; assay type: ADME, organism-based; conditions: rat, in vivo

Row | IC50 [1] [µM] | SMILES | other results
1 | 7.5 | CC(C)[C@@H](NS(=O)(=O)c1ccc(-c2ccc(NC(=O)c3cc4ccccc4o3)cc2)cc1)C(=O)O | –
2 | 1.4 | CC(C)[C@@H](NS(=O)(=O)c1ccc(-c2ccc(OCc3cc4ccccc4o3)cc2)cc1)C(=O)O | –
3 | 50 | CC(C)[C@@H](NS(=O)(=O)c1ccc(-c2ccccc2[N+](=O)[O-])cc1)C(=O)O | –
4 | 1.1 | O=C(O)CC[C@@H](NS(=O)(=O)c1ccc(-c2ccccc2)cc1)C(=O)O | –
5 | 0.35 | CC(C)[C@@H](NS(=O)(=O)c1ccc(-c2ccc(OC(=O)c3cc4ccccc4o3)cc2)cc1)C(=O)O | –
6 | 2.8 | O=C(O)[C@@H](Cc1cc2ccccc2[nH]1)NS(=O)(=O)c1ccc(-c2ccccc2)cc1 | –
7 | 100 | CC(C)C(CC(=O)O)NS(=O)(=O)c1ccc(-c2ccccc2)cc1 (stereo unspecified) | –
8 | 0.4 | CC(C)[C@@H](NS(=O)(=O)c1ccc(-c2ccc(/C=C/c3cc4ccccc4o3)cc2)cc1)C(=O)O | –
9 | 3.8 | CC(C)[C@@H](NS(=O)(=O)c1ccc(-c2ccc(CC(=O)c3cc4ccccc4o3)cc2)cc1)C(=O)O | –
10 | 0.086 | Cc1c(C(=O)Oc2ccc(-c3ccc(S(=O)(=O)N[C@@H](C(=O)O)C(C)C)cc3)cc2)oc2ccccc12 | –
11 | – | COc1ccc(S(=O)(=O)N(Cc2cccnc2)[C@@H](C(=O)NO)C(C)C)cc1 | inhibition ([2]; concentration not given here): 92%
12 | 20 | CC(C)[C@@H](NS(=O)(=O)c1ccc(-c2ccccc2O)cc1)C(=O)O | –
13 | 5.5 | C[C@@H](NS(=O)(=O)c1ccc(-c2ccccc2)cc1)C(=O)O | –
14 | 1.6 | CC(C)[C@H](C(=O)O)N(C)S(=O)(=O)c1ccc(-c2ccccc2)cc1 | –
15 | – | COc1ccc(S(=O)(=O)N(Cc2cccnc2)C(C(=O)NO)C(C)C)cc1 (single isomer, unassigned) | inhibition [2]: inactive
16 | > 100 | CC(C)[C@H](NS(=O)(=O)c1ccc(-c2ccccc2)cc1)C(=O)O | –
17 | 30 | CC(C)[C@@H](NS(=O)(=O)c1ccc(-c2ccccc2)c(N)c1)C(=O)O | –
18 | 4.3 | O=C(O)[C@@H](Cc1ccccc1)NS(=O)(=O)c1ccc(-c2ccccc2)cc1 | –
19 | > 100 | CC(C)[C@@H](NS(=O)(=O)c1cccc(-c2ccccc2)c1)C(=O)O | –
20 | 12 | CC(C)[C@H](C(=O)O)N(Cc1cccnc1)S(=O)(=O)c1ccc(-c2ccccc2)cc1 | –
21 | 3 | CC(C)[C@@H](NS(=O)(=O)c1ccc(-c2ccccc2)cc1)C(=O)O | –

Row | SMILES | IC50 [1] [µM] | other results
22 | Cc1c(COc2ccc(-c3ccc(S(=O)(=O)N[C@H](Cc4ccccc4)C(=O)O)cc3)cc2)oc2ccccc12 | 0.7 | Cmax [3]: 1.36 µg/mL; IC50 [4]: 0.028 µM; IC50 (Collagenase 3): 0.0044 µM; half-life [5]: 4.62 h; IC50 (Interstitial collagenase): > 100 µM; IC50 [6]: 3 µM; clearance [7]: 0.966 L/h/kg; inhibition [8]: 89%; bioavailability [9]: 35%
